Assay [1] has as its system transient focal cerebral ischemia model rat. In words: Cerebral infarct volume in transient focal cerebral ischemia model rat (Example 33; test substance given immediately after MCA recanalization). It is filed as in vivo. As to conditions: for Cerebral infarct volume (mm^3): tail vein, brain extracted 24 hours after MCA occlusion, mean ± S.E. of 10 rats; for Individual data of the cerebral infarct volume (mm^3): individual animals. The method, then:
The activity of the compound of the present disclosure was evaluated according to the following procedure.
Compound 9 (aqueous solution (50 mg/mL) prepared by dissolving a white powder in a saturated NaHCO3 solution)
Edaravone (trade name: Radicut (registered trademark) Mitsubishi Tanabe Pharma Corporation) Vehicle
Japanese Pharmacopoeia physiological saline (hereinafter, physiological saline) (Otsuka Pharmaceutical Factory, Inc.)
Rat (strain: Crl: CD (SD)) (THE JACKSON LABORATORY JAPAN, INC.)
• Intravenous administration
Using a syringe (1 mL, Terumo Corporation) equipped with an injection needle (25G×5/8, Terumo Corporation), tail vein administration was performed immediately after MCA recanalization.
Using a syringe (1 mL, Terumo Corporation) equipped with an injection needle (25G×5/8, Terumo Corporation), tail vein administration was performed immediately after MCA recanalization and 30 minutes after MCA recanalization (actual result: ±0 minutes from the specified time, allowable range: ±3 minutes from the specified time).
• 0.2 mg/kg and 2 mg/kg
• (1) The received test substance was thawed and then divided into 4 brown glass bottles by 0.1 mL. • (2) The test substances divided into small portions were stored frozen (measured value: −24.4 to −22.6° C., allowable range: −35 to −10° C.) until use in preparation. • (3) One test substance divided into small portions for each day of administration was thawed, and 4.9 mL of physiological saline was added to prepare a 1 mg/mL administration solution . . . I • (4) From I, 0.5 mL was dispensed into a brown glass bottle, and 4.5 mL of physiological saline was added to prepare a 0.1 mg/mL administration solution. • (5) It was prepared before use. • (6) The remainder after administration was discarded.
(§1) The rat was fixed in a supine position under 2% isoflurane inhalation anesthesia (Lot No.: 234KAP, Mylan Inc., laughing gas:oxygen=7:3). A thermometer probe connected to a digital thermometer (TX1002, Yokogawa Meters & Instruments Corporation) was inserted into the rectum to perform thermoregulation during surgery, and changes in rectal temperature before and after surgery were monitored. As a result, since a decrease in rectal temperature was not observed in any rat, heating was not performed. The right common carotid artery, external carotid artery, and internal carotid artery were exposed, and the common carotid artery and external carotid artery were ligated with sutures. A nylon yarn (plug) No. 4 previously coated with silicon (Kulzer Japan Co., Ltd.) and cut to a length of 19 mm was inserted from the bifurcation of the external carotid artery and the internal carotid artery to occlude the right MCA. After MCA occlusion, the neck skin was sutured and released from anesthesia. Flexion of the contralateral forelimb on the occluded side was confirmed 30 minutes after MCA occlusion. Under 2% isoflurane inhalation anesthesia, the right common carotid artery, the right external carotid artery, and the right internal carotid artery were exposed again, the plug was removed 2 hours after MCA occlusion, and the blood flow of the right MCA was resumed. After the blood flow of the right MCA was resumed, ligation of the right internal carotid artery and suturing of the neck skin were performed to awaken the animal from anesthesia. Note that benzylpenicillin potassium (Lot No.: 00904, Meiji Seika Pharma Co., Ltd.) was administered intramuscularly at a dosage of 20,000 units/kg before the MCA occlusion surgery.
24 hours after MCA occlusion, the animal was decapitated under 2% isoflurane inhalation anesthesia (Lot No.: 234KAP, Mylan Inc., laughing gas:oxygen=7:3), and the whole brain was extracted to prepare a brain section having a thickness of 2 mm. Referring to Paxinos and Watson brain atlas [axinos G. and Watson C. The rat brain in stereotaxic coordinates, second edition. […]

Assay [2] has the same test system. Nature of the assay: Cerebral infarct volume in transient focal cerebral ischemia (MCA occlusion/recanalization) model rat. Type of assay: in vivo. The following applies: for Cerebral infarct volume compared with the vehicle group: Dunnett's multiple comparison test; for Cerebral infarct volume: group mean ± S.E., n=10, brain extracted 24 hours after MCA occlusion.
Excerpt: as §1, with “248KKY, Viatris Pharmaceutical Co., Ltd.,” for “234KAP, Mylan Inc.,”
24 hours after MCA occlusion, the animal was decapitated under 2% isoflurane inhalation anesthesia (Lot No.: 248KKY, Viatris Pharmaceutical Co., Ltd., laughing gas:oxygen=7:3), and the whole brain was extracted to prepare a brain section having a thickness of 2 mm. Referring to Paxinos and Watson brain atlas [Paxinos G. and Watson C. The rat brain in stereotaxic coordinates, second edition. San Diego, New York, Boston, London, Sydney, Tokyo, Toronto: Academic Press Inc.; 1986.], the brain sections were set at positions where coronal planes of 4 mm anterior to Bregma, 2 mm anterior to Bregma, above Bregma, 2 mm posterior to Bregma, 4 mm posterior to Bregma, and 6 mm posterior to Bregma were obtained. The brain sections were immersed in a 1% (W/V) 2,3,5-triphenyltetrazolium chloride (Lot No.: M7B5587, Nacalai Tesque Inc.) solution at room temperature, stained, and photographed. From the obtained photograph, brain sections (infarction site and non-infarction site) were traced on an OHP sheet. The traced image was captured by a scanner (Seiko Epson Corporation), image analysis was performed using WinROOF2015 (MITANI CORPORATION), a cerebral infarct area was obtained as a measured value, and a cerebral infarct volume between 4 mm anterior to Bregma and 6 mm posterior to Bregma was calculated from the obtained value.
[formula] • V: Cerebral infarct volume • a: Cerebral infarct area on section of 4 mm anterior to Bregma • b: Cerebral infarct area on section of 2 mm anterior to Bregma • c: Cerebral infarct area on section of Bregma • d: Cerebral infarct area on section of 2 mm posterior to Bregma • e: Cerebral infarct area on section of 4 mm posterior to Bregma • f: Cerebral infarct area on section of 6 mm posterior to Bregma
• Calculation of cerebral infarct volume (mm^3)
The employed data were expressed as a mean±standard error.
The following combinations were performed.

Where “and” joins values, the source holds several entries; their conditions need not be identical. Equal values may be shown once. Entries after “also recorded” stand apart in the source; their conditions may differ.

With `CC[C@@]1(C)Oc2cc(ccc2O)C[C@H](NC)C(=O)N[C@@H](C(C)C)C(=O)N[C@@H]1C(=O)N[C@@H](CC(=O)O)C(=O)O` [Compound 9], the “Cerebral infarct volume (mm^3)” value in assay [1] (Compound 9 0.2 mg/kg, immediately after MCA recanalization, 2 hours MCA occlusion, 0.2 mg/kg) was 336.9±14.2 mm^3 and 336.9 mm^3; in assay [1] (Compound 9 2 mg/kg, immediately after MCA recanalization, 2 hours MCA occlusion, 2 mg/kg), 301.8±12.8 mm^3 and 301.8 ± 12.8 ^** mm^3 and 301.8 mm^3. In addition, in assay [1] (Compound 9 2 mg/kg i.v.), the “Statistical difference of cerebral infarct volume from the vehicle group (Dunnett's multiple comparison test)” value is “a statistically significant difference was observed in the 2 mg/kg group”. Moreover, the “Cerebral infarct reduction action: cerebral infarct volume compared with the vehicle group” value in assay [1] (Compound 9 groups, 0.2 mg/kg and 2 mg/kg i.v.) is recorded as “all showed low values; also recorded: has an ameliorating effect on cerebral infarct after cerebrovascular disorder”. For the same compound, the “Individual data of the cerebral infarct volume (mm^3)” value in assay [1] (Compound 9 0.2 mg/kg group (n = 10), 0.2 mg/kg) is 341.9 mm^3 and 350.2 mm^3 and 331.8 mm^3 and 366.5 mm^3 and 372.7 mm^3 and 219.1 mm^3 and 318.3 mm^3 and 339.3 mm^3 and 369.8 mm^3 and 359.8 mm^3; in assay [1] (Compound 9 2 mg/kg group (n = 10), 2 mg/kg) it was 264.4 mm^3 and 343.3 mm^3 and 342.4 mm^3 and 374.1 mm^3 and 279.7 mm^3 and 273.1 mm^3 and 293.4 mm^3 and 251.2 mm^3 and 316.6 mm^3 and 279.6 mm^3. Moreover, the “Cerebral infarct volume compared with the vehicle group” value in assay [2] (administered 30 minutes after MCA recanalization) is recorded as “ameliorating effect on cerebral infarct”; in assay [2] (administered 1 hour after MCA recanalization, p value=0.0525), “improvement tendency”. Further, the Cerebral infarct volume in assay [2] (2 mg/kg administered 30 minutes after MCA reperfusion) is 250.0±20.5 mm^3 and 250.0 ± 20.5 * mm^3 and 250.0 mm^3; in assay [2] (2 mg/kg administered 1 hour after MCA reperfusion), 260.4±13.9 mm^3 and 260.4 mm^3. Also, the “Cerebral infarct volume, individual data” value in assay [2] (individual animals Nos. 202-214, administered 30 minutes after MCA reperfusion) is 254.3 mm^3 and 319.8 mm^3 and 274.6 mm^3 and 210.2 mm^3 and 133.9 mm^3 and 192.3 mm^3 and 272.2 mm^3 and 296.0 mm^3 and 201.4 mm^3 and 345.5 mm^3; in assay [2] (individual animals Nos. 301-314, second Compound 9 group (head prints 30 minutes after MCA reperfusion; mean matches the 1 hour group)) it was 253.1 mm^3 and 243.0 mm^3 and 355.2 mm^3 and 220.7 mm^3 and 261.4 mm^3 and 250.7 mm^3 and 192.0 mm^3 and 256.3 mm^3 and 272.3 mm^3 and 299.0 mm^3.

As to `CC1=NN(c2ccccc2)C(=O)C1` [Edaravone, reference compound], the “Cerebral infarct volume compared with the vehicle group (Student's t-test)” value in assay [1] (Edaravone 3 mg/kg per dose i.v., twice) is “showed low values, and a statistically significant difference was observed; also recorded: showed a lower value than that of the vehicle group, and a statistically significant difference was observed”. The “Cerebral infarct volume (mm^3)” value in assay [1] (Edaravone 3 mg/kg per dose, immediately after and 30 minutes after MCA recanalization) was 292.8±14.2 mm^3 and 292.8 ± 14.2 ^## mm^3 and 292.8 mm^3. Moreover, the “Individual data of the cerebral infarct volume (mm^3)” value in assay [1] (Edaravone 3 mg/kg per dose group (n = 10)) was 248.4 mm^3 and 324.8 mm^3 and 282.1 mm^3 and 375.0 mm^3 and 308.0 mm^3 and 319.8 mm^3 and 217.2 mm^3 and 299.1 mm^3 and 253.8 mm^3. Moreover, the Cerebral infarct volume in assay [2] (Edaravone group 3 mg/kg) is 232.2±14.6 mm^3 and 232.2 ± 14.6 ^## mm^3 and 232.2 mm^3. Moreover, the “Cerebral infarct volume, individual data” value in assay [2] (individual animals Nos. 401-414, Edaravone group) was 140.7 mm^3 and 218.3 mm^3 and 221.0 mm^3 and 170.0 mm^3 and 231.1 mm^3 and 268.2 mm^3 and 268.9 mm^3 and 278.6 mm^3 and 268.4 mm^3 and 257.0 mm^3.

The record behind these values is patent US20260151451A1, “CYCLIC PEPTIDE DERIVATIVE COMPOSITION FOR TREATING OR PREVENTING CENTRAL NERVOUS SYSTEM INJURY/DISEASE” (DKS Co. Ltd., priority 2022, published 2026).
